Experiments:
Format in all cases: cell-based, mouse
[1] = test system: EC d4 (endothelial progenitor cells); assay: AlamarBlue cell viability; conditions: 48 h treatment
Description: (§1) Drug-induced cytotoxicity was monitored by analyzing cell viability using the AlamarBlue assay, which measures the reduction of the non-fluorescent dye resazurin (Sigma [Steinheim, Germany]) to fluorescent resorufin by living (i.e. metabolically active) cells. Fluorescence was measured in quadruplicates (excitation: 535 nm, emission: 590 nm (Tecan infinite 200, Tecan, Männedorf, Switzerland)). Relative cell viability of the untreated control was set to 100%.

mESC [2] = assay: AlamarBlue cell viability; conditions: 24–72 h treatment
Description: as §1

[3] = test system: EC d6 (endothelial-like cells); assay: RT-qPCR mRNA expression; conditions: for Cdkn1a mRNA / Cdkn2a mRNA / Glb1 mRNA / Il6 mRNA / Il8 mRNA / Tp53 mRNA: Fig 7C
Description: Total RNA was purified using the RNeasy Mini Kit (Qiagen, Hilden, Germany). Reverse transcriptase (RT) reaction was performed with the HighCapacity cDNA Reverse Transcription Kit (Applied Biosystems, Darmstadt, Germany) using 900–2000 ng of RNA. Quantitative RT-qPCR analysis was performed using following conditions: (1) 95 °C–10 min; (2) 45 amplification cycles with 95 °C–15 s, 55 °C–15 s, and 72 °C–17 s; (3) 95 °C–1 min, 55 °C–1 min, 65 °C–5 s. If not stated otherwise, analyses were performed in technical triplicates using pooled samples from two independent experiments (each performed with biological duplicates) by use of a CFX96 cycler (BioRad) and the SensiMix SYBR Kit (Bioline, London, UK). The primers used for mRNA expression analyses are listed in Supplementary Table 1. To ensure the specificity of the amplification product, melting curves were recorded at the end of the run. mRNA expression levels were normalized to β-Actin and Gapdh. Relative mRNA expression in mESC or corresponding untreated controls was set to 1.0. Only changes in gene expression of ≤ 0.5- and ≥ 2-fold were considered as biologically relevant.

mESC [4] = assay: EdU incorporation (S-phase activity); conditions: mESC 24 h
EC d4 = assay: Dil-acLDL uptake; conditions: EC d4 treated 48 h
Description: To monitor prototypical functions of endothelial cells, the uptake of fluorescent 1,1-dioctadecyl-3,3,3,3-tetra-methylindocarbocyanine-labeled acetylated LDL (Dil-acLDL) was examined. Briefly, cells were incubated with Dil-acLDL (10 µg/ml, 4 h, 37 °C). After fixation (3.7% cold formaldehyde/PBS (15 min, RT) nuclei were counterstained with DAPI. The uptake of DiI-acLDL was analyzed by fluorescence microscopy (Olympus BX43, 20x objective). Additionally, the response of differentiated EC to inflammatory cytokines was measured. After treatment with a pro-inflammatory cytokine mixture (TNFα/IL-1β, 10 ng/mL) for 1 h, mRNA expression of activated EC markers E-selectin, Icam-1, Vcam-1, Ccl2, eNos, iNos was analyzed (RT-qPCR).

[5] = EC d6 + 10 µM 24 h + 24 h post incubation
[6] = EC d6 + 20 µM 24 h + 24 h post incubation

For O=c1c2ccccc2nc(/C=C/c2cccnc2)n1Cc1ccccc1 [B02], the “susceptibility (cell viability) of EC d4 as compared to both mESC and EC d6” value [1] was “not observed”, the IC50 (mESC [2]) was ~20 µM and the “Cdkn1a mRNA” value [3, 5] was 1.67 Fold of untreated control. For the same compound, the “Cdkn2a mRNA” value [3, 5] was 0.64 Fold of untreated control, the “Glb1 mRNA” value [3, 5] was 0.88 Fold of untreated control and the “Il6 mRNA” value [3, 5] was 0.85 Fold of untreated control. For the same compound, the “Il8 mRNA” value [3, 5] was 0.52 Fold of untreated control, the “Tp53 mRNA” value [3, 5] was 0.97 Fold of untreated control and the “Cdkn1a mRNA” value [3, 6] was 2.28 Fold of untreated control. The “Cdkn2a mRNA” value [3, 6] was 1.15 Fold of untreated control, the “Glb1 mRNA” value [3, 6] was 1.64 Fold of untreated control and the “Il6 mRNA” value [3, 6] was 1.79 Fold of untreated control. For the same compound, the “Il8 mRNA” value [3, 6] was 0.32 Fold of untreated control, the “Tp53 mRNA” value [3, 6] was 1.27 Fold of untreated control and the “Brca1 mRNA” value ([3]; EC d6 + 20 µM 24 h, Fig 5C) was 0.51 Fold of mESC. The “Chk1 mRNA” value ([3]; EC d6 + 20 µM 24 h, Fig 5C) was 1.27 Fold of mESC, the “Rad51 mRNA” value ([3]; EC d6 + 20 µM 24 h, Fig 5C) was 0.34 Fold of mESC and the “Pgc1a mRNA” value ([3]; EC d6 + 20 µM 24 h, Fig 6D) was 0.27 Fold of untreated control. For the same compound, the “Cldn5 mRNA” value ([3]; EC d6 + 20 µM 24 h, Fig 8C) was 4.85 Fold of EC d4 or d6, the “Ocln mRNA” value ([3]; EC d6 + 20 µM 24 h, Fig 8C) was 1.87 Fold of EC d4 or d6 and the “Tjp1 mRNA” value ([3]; EC d6 + 20 µM 24 h, Fig 8C) was 1.07 Fold of EC d4 or d6. The “number of EdU-positive cells” value (mESC [4]) was “not” and the “LDL uptake in EC d6 progeny of treated EC d4” value (EC d4) was “strongest functional defect”.

Reference: publication PMC13308190, “Endothelial progenitor cell susceptibility to DNA damaging and DDR-modulating compounds determines endothelial differentiation accuracy” (Stem Cell Research & Therapy, 2026)
